Patent US20210029993A1, “SPATIAL INHIBITORS, DETERRENTS AND REPELLENTS FOR MOSQUITOES AND MIDGES” (BEDOUKIAN RESEARCH, INC., priority 2005, published 2021)

What was measured:
Assay type in all cases: in vivo
mosquitoes = experiment: Spatial inhibition of mosquitoes, outdoor Mosquito Magnet Liberty Plus trap catch; conditions: for Percent Caught Relative To Control: control trap = 100% catch, lower = more inhibition; for percent mosquitoes caught relative to the control (relative catch): two grams of test compound on absorbent material in CO2 and r-octenol stream of trap, 2-5 days, FIG. 5
Protocol: Two grams of test compound was absorbed onto pieces of absorbent material. These pieces of absorbent material (fragrance release material from Rhopore Inc.) containing absorbed test compound were then placed in a stream of CO2 and r-octenol being released from an American Biophysics Mosquito Magnet Liberty Plus mosquito trap designed to attract mosquitoes. The test were rotated over a period of 2-5 days in such a manner that both control (trap without test compound) and test compound were tested an equal number of times in each trap employed. The number of mosquitoes caught in the traps with test compounds was compared to the number of mosquitoes caught in the trap with no test compound material present. […] Thus, a lowered percentage is indicative of the increasing ability of the test compounds to inhibit the ability of the mosquitoes sense the target. […] In Table 3, weight percent (wt %) refers to the weight of the deterring/repelling/inhibiting compound, or combination of compounds, in the composition used in the tests. In the “Percent Caught Relative to Control” column in Table 3, a lower percentage is indicative of the increasing ability of the test compounds to inhibit the ability of the mosquitoes sense the target. The weight ratio of the compounds in the combination of compounds is given in parentheses in the “Compound(s)” column of Table 3.

biting midges = experiment: Spatial inhibition of biting midges, outdoor trap catch; conditions: control trap = 100% catch, lower = more inhibition
Protocol: Two grams of test compound is absorbed onto pieces of absorbent material. These pieces of absorbent material (fragrance release material from Rhopore Inc.) containing absorbed test compound are then placed in a stream of CO2 and r-octenol being released from a biting midges biting midge trap designed to attract biting midges. The test are rotated over a period of 2-5 days in such a manner that both control (trap without test compound) and test compound are tested an equal number of times in each trap employed. The number of biting midges caught in the traps with test compounds is compared to the number of biting midges caught in the trap with no test compound material present. […] Thus, a lowered percentage is indicative of the increasing ability of the test compounds to inhibit the ability of the biting midges sense the target. In Table 6, weight percent (wt %) refers to the weight of the deterring/repelling/inhibiting compound, or combination of compounds, in the composition used in the tests. In the “Percent Caught Relative to Control” column in Table 6, a lower percentage is indicative of the increasing ability of the test compounds to inhibit the ability of the biting midges to sense the target. The weight ratio of the compounds in the combination of compounds is given in parentheses in the “Compound(s)” column of Table 6.

[1] = tested on: female biting midges (Culicoides impunctatus); experiment: Biting midges feeding test (Plexiglas module, treated membrane); conditions: control = 1.00, lower = more repellent
Protocol: The following tests are employed to illustrate the efficacy of the compounds of this disclosure to effectively act as biting midge deterrents, repellents or as spatial inhibitors for biting midges. […] Biting midges are tested in a two-piece Plexiglas module designed to assess their response to feeding deterrents. […] Water (40° C.) flows through the central cavity of the platform at a rate of 215 ml/min. The top piece of the module consists of six 4.5×4.0×5.0 cm chambers, the floors of which are fitted with a sliding door positioned over a circular opening 3.5 cm in diameter. Biting midges are introduced through an aperture 1 cm in diameter on the front wall of the chambers. For each test, five female biting midges (Culicoides impunctatus) are aspirated into each of five chambers of the top module piece and the apertures are plugged with corks wrapped in plastic film. […] To each well, 77.5 μl of green dye (McCormick Food, Hunt Valley, Md.) are added so that those biting midges imbibing the sugar solution can be identified when crushed at the end of the tests. Each membrane receives 50 μl of acetone or experimental compound solution, applied to 9.6 cm^2 circular area on 0.1 mm-thick membranes made of nylon mesh in a silicone matrix. The membranes are then placed over each well in contact with the sugar solution. The circular openings on the floor of each chamber of the top piece of the module are aligned with each membrane-covered well of the bottom piece. The sliding floors of the chambers are then opened allowing biting midges access to the membranes. The number of biting midges landing on the membranes, and those flying within the apparatus, are recorded each minute for five minutes. After five minutes, any biting midges remaining on the membranes are removed with a metal wire, and the door of the floor of each chamber is closed. The top piece of the module is then placed into a freezer for 20 minutes. In the test designed to assess feeding, biting midges are removed from the frozen module, crushed on white paper towels, and examined for the presence of green dye to indicate that feeding had occurred. The proportions of biting midges feeding per trial are analyzed using a standard generalized linear model with a logit link. Landing and flying scores are repeated measures; five readings are obtained for groups of five biting midges. Thus, to maintain independence among the data, the five readings are summed, and then the sums divided by 25 (the maximum score in each category) to create proportions of biting midges landing and flying. The proportions are then transferred using the standard variance stabilizing transformation for proportions (sin^−1 √y, where y is the proportion), and analyzed using ANOVA (Analysis of Variables). In Table 4, weight percent (wt %) refers to the weight of the deterring/repelling/inhibiting compound, or combination of compounds, in the composition used in the tests. […] The weight ratio of the compounds in the combination of compounds is given in parentheses in the “Compound(s)” column of Table 4.

[2] = 80 wt % compound(s) in composition
[3] = 85 wt % compound(s) in composition
[4] = 77.5 wt % compound(s) in composition
[5] = 92.5 wt % compound(s) in composition
[6] = 82.5 wt % compound(s) in composition
[7] = 87.5 wt % compound(s) in composition
[8] = 95 wt % compound(s) in composition
[9] = 90 wt % compound(s) in composition

Cc1ccc(C(C)(C)O)cc1
Percent Caught Relative To Control (mosquitoes; [2]): 26%
percent mosquitoes caught relative to the control (relative catch) (mosquitoes): about 34%
Percent Caught Relative To Control (biting midges; [2]): 25%
Feeding Relative To Control [1, 2]: 0.73

C=C(C)[C@@H]1CC=C(C)[C@H](O)C1 (relative stereo) [cis-Carveol]
Percent Caught Relative To Control (mosquitoes; [3]): 23%
Percent Caught Relative To Control (biting midges; [3]): 24%
Feeding Relative To Control [1, 3]: 0.67

C=C(C)[C@@H]1CC=C(C)[C@@H](O)C1 (relative stereo) [trans-Carveol]
Percent Caught Relative To Control (mosquitoes; [4]): 22%
Percent Caught Relative To Control (biting midges; [4]): 22%
Feeding Relative To Control [1, 4]: 0.63

C=C(C)C1CCC2(C)OC2C1 (single isomer, unassigned; (-)) [(−) Limonene oxide]
Percent Caught Relative To Control (mosquitoes; [5]): 17%
Percent Caught Relative To Control (biting midges; [5]): 16%
Feeding Relative To Control [1, 5]: 0.75

CC(C)=CCCC(C)=CC=O [Citral]
Percent Caught Relative To Control (mosquitoes; [6]): 10%
Percent Caught Relative To Control (biting midges; [6]): 12%
Feeding Relative To Control [1, 6]: 0.60

CC(C)=CCCC(C)CC=O (stereo not drawn) [Citronellal]
Percent Caught Relative To Control (mosquitoes; [5]): 11%
Percent Caught Relative To Control (biting midges; [5]): 12%
Feeding Relative To Control [1, 5]: 0.64

CC(C)=CCCC(C)CCO (stereo not drawn) [Citronellol]
Percent Caught Relative To Control (mosquitoes; [7]): 12%
Percent Caught Relative To Control (biting midges; [7]): 12%
Feeding Relative To Control [1, 7]: 0.64

CC(=O)OCCC(C)CCC=C(C)C (stereo not drawn) [Citronellyl acetate]
Percent Caught Relative To Control (mosquitoes; [2]): 26%
Percent Caught Relative To Control (biting midges; [2]): 25%
Feeding Relative To Control [1, 2]: 0.67

CC(=O)OC/C=C(\C)CCC=C(C)C [Geranyl acetate]
Percent Caught Relative To Control (mosquitoes; [3]): 30%
Percent Caught Relative To Control (biting midges; [3]): 29%
Feeding Relative To Control [1, 3]: 0.64

C=CC(C)(CCC=C(C)C)OC(C)=O (stereo not drawn) [Linaloyl acetate]
Percent Caught Relative To Control (mosquitoes; [8]): 15%
Percent Caught Relative To Control (biting midges; [8]): 16%
Feeding Relative To Control [1, 8]: 0.72

CC(=O)OC/C=C(/C)CCC=C(C)C [Neryl acetate]
Percent Caught Relative To Control (mosquitoes; [4]): 22%
Percent Caught Relative To Control (biting midges; [4]): 20%
Feeding Relative To Control [1, 4]: 0.72

CC1=CCC(O)(C(C)C)CC1 (stereo not drawn) [Terpinen-4-ol]
Percent Caught Relative To Control (mosquitoes; [9]): 20%
percent mosquitoes caught relative to the control (relative catch) (mosquitoes): about 38%
Percent Caught Relative To Control (biting midges; [9]): 21%
Feeding Relative To Control [1, 9]: 0.74

CC(C)[C@@H]1CC[C@@H](C)C(=O)C1 [Tetrahydrocarvone]
Percent Caught Relative To Control (mosquitoes; [8]): 25%
percent mosquitoes caught relative to the control (relative catch) (mosquitoes): about 52%
Percent Caught Relative To Control (biting midges; [8]): 25%
Feeding Relative To Control [1, 8]: 0.72

C=C(C)[C@H]1CC=C(C)C(=O)C1 [d-Carvone]
Percent Caught Relative To Control (mosquitoes; [4]): 12%
Percent Caught Relative To Control (biting midges; [4]): 13%
Feeding Relative To Control [1, 4]: 0.65

C=C[C@@](C)(O)CCC=C(C)C [d-Linalool, reference compound]
Percent Caught Relative To Control (mosquitoes; [2]): 6%
Percent Caught Relative To Control (biting midges; [2]): 6%
Feeding Relative To Control [1, 2]: 0.31

CC1=CCC(C(C)(C)O)CC1 (stereo not drawn) [α-terpineol]
Percent Caught Relative To Control (mosquitoes; [9]): 18%
Percent Caught Relative To Control (biting midges; [9]): 16%
Feeding Relative To Control [1, 9]: 0.80

(+) Limonene oxide
Percent Caught Relative To Control (mosquitoes; [7]): 18%
Percent Caught Relative To Control (biting midges; [7]): 19%
Feeding Relative To Control [1, 7]: 0.77

l-Carvone
Percent Caught Relative To Control (mosquitoes; [6]): 10%
Percent Caught Relative To Control (biting midges; [6]): 12%
Feeding Relative To Control [1, 6]: 0.62
